# According to patent US9346809B2 (LEO PHARMA A/S, priority 2009, dated 2016):
# Tests used:
# Type in all cases: biochemical
# [1] = biological target: T1, JAK2 (catalytic domain, His-tag) (Homo sapiens, UniProt O60674); test: JAK kinase assay (HTRF, phosphorylation of TK substrate-biotin), JAK2; conditions: HTRF assay, ATP at Km (4 μM); read-out: JAK2 kinase inhibitory activity (EC50 indicator)
# T1 construct: All four purified enzymes contain only the catalytic domain; His (N); purchased Carna Biosciences, Inc; host or cells: baculovirus expression system
# Outline: (§1)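 Catalytic-domain kinases phosphorylated 1 μM biotin-TK substrate at ATP Km (JAK1 7 μM, JAK2 4 μM, JAK3 2 μM, TYK2 13 μM) in Hepes pH 7.0 with DTT and MgCl2, for 20-30 min at RT; JAK1 and TYK2 also had 50 nM SEB. Detection was by HTRF (streptavidin-XL665/Cryptate antibody) overnight, giving EC50.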
# [2] = biological target: T2, TYK2 (aa 871-1187, catalytic domain, GST-tag) (Homo sapiens, UniProt P29597); test: JAK kinase assay (HTRF, phosphorylation of TK substrate-biotin), TYK2; conditions: HTRF assay, ATP at Km (13 μM); read-out: TYK2 kinase inhibitory activity (EC50 indicator)
# T2 construct: JAK1 (aa 850-1154) and TYK2 (aa 871-1187) are expressed with an N-terminally fused GST-tag; GST (N); purchased Carna Biosciences, Inc; host or cells: baculovirus expression system
# T2 sequence (P29597 871-1187): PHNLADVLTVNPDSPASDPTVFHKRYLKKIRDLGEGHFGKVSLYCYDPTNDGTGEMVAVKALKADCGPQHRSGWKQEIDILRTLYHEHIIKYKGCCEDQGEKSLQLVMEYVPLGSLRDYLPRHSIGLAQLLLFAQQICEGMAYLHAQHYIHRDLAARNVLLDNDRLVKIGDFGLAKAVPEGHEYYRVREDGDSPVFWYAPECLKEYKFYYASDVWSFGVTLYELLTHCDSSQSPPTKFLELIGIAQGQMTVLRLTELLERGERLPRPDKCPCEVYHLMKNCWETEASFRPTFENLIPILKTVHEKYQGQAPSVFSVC
# Outline: as §1
# [3] = biological target: T3, JAK3 (catalytic domain, His-tag) (Homo sapiens, UniProt P52333); test: JAK kinase assay (HTRF, phosphorylation of TK substrate-biotin), JAK3; conditions: HTRF assay, ATP at Km (2 μM); read-out: JAK3 kinase inhibitory activity (EC50 indicator)
# T3 construct: All four purified enzymes contain only the catalytic domain; His (N); purchased Carna Biosciences, Inc; host or cells: baculovirus expression system
# Outline: as §1
# [4] = biological target: T4, JAK1 (aa 850-1154, catalytic domain, GST-tag) (Homo sapiens, UniProt P23458); test: JAK kinase assay (HTRF, phosphorylation of TK substrate-biotin), JAK1; conditions: HTRF assay, ATP at Km (7 μM); read-out: JAK1 kinase inhibitory activity (EC50 indicator)
# T4 construct: JAK1 (aa 850-1154) and TYK2 (aa 871-1187) are expressed with an N-terminally fused GST-tag; GST (N); purchased Carna Biosciences, Inc; host or cells: baculovirus expression system
# Outline: as §1
# T4 sequence (P23458 850-1154): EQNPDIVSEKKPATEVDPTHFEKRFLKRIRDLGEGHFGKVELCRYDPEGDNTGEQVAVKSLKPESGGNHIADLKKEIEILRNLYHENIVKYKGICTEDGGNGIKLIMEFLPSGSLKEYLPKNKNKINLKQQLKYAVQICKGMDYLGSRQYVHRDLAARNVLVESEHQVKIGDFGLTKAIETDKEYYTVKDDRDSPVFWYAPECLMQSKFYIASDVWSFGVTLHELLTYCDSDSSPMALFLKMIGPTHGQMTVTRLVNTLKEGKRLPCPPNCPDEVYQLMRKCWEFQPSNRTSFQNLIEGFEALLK
# T1 sequence (O60674 849-1124 limits assumed): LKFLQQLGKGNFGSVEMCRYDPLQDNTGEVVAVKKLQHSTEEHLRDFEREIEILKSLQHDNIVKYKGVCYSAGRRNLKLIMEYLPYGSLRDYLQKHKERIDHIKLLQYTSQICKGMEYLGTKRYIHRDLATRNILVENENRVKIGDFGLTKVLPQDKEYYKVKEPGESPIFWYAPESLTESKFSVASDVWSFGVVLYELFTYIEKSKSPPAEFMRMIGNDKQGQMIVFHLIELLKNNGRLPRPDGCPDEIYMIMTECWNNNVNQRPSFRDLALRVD
# T3 sequence (P52333 822-1111 limits assumed): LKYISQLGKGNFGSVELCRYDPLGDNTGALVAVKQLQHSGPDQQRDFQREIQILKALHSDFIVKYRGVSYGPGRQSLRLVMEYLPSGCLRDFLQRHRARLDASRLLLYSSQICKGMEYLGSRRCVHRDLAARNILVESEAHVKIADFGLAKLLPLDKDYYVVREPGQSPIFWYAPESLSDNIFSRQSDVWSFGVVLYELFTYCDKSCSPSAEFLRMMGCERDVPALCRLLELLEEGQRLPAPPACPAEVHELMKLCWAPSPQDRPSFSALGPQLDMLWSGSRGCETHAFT
EC50 [1] [nM],EC50 [2] [nM],EC50 [3] [nM],EC50 [4] [nM],Compound
< 100,100 to 500,< 100,< 100,"COCCNS(=O)(=O)c1ccc(C(=O)N2CCN(c3ncnc4[nH]ccc34)CC23CC3)cc1 [Example 396, N-(2-Methoxy-ethyl)-4-[7-(7H-pyrrolo[2,3-d]pyrimidin-4-yl)-4,7-diaza-spiro[2.5]octane-4-carbonyl]-benzenesulfonamide]"
< 100,100 to 500,100 to 500,< 100,"O=C(c1ccc(S(=O)(=O)NCCc2cccs2)cc1)N1CCN(c2ncnc3[nH]ccc23)CC12CC2 [Example 397, 4-[7-(7H-Pyrrolo[2,3-d]pyrimidin-4-yl)-4,7-diaza-spiro[2.5]octane-4-carbonyl]-N-(2-thiophen-2-yl-ethyl)-benzenesulfonamide]"
< 100,> 500,< 100,< 100,"NS(=O)(=O)c1cccc(CC(=O)N2CCN(c3ncnc4[nH]ccc34)CC23CC3)c1 [Example 398, 3-{2-Oxo-2-[7-(7H-pyrrolo[2,3-d]pyrimidin-4-yl)-4,7-diaza-spiro[2.5]oct-4-yl]-ethyl}-benzenesulfonamide]"
< 100,< 100,< 100,< 100,"NS(=O)(=O)c1ccc(OCC(=O)N2CCN(c3ncnc4[nH]ccc34)CC23CC3)cc1 [Example 399, 4-{2-Oxo-2-[7-(7H-pyrrolo[2,3-d]pyrimidin-4-yl)-4,7-diaza-spiro[2.5]oct-4-yl]-ethoxy}-benzenesulfonamide]"
< 100,100 to 500,100 to 500,< 100,"NS(=O)(=O)c1ccc(-c2ccc(C(=O)N3CCN(c4ncnc5[nH]ccc45)CC34CC4)o2)cc1 [Example 400, 4-{5-[7-(7H-Pyrrolo[2,3-d]pyrimidin-4-yl)-4,7-diaza-spiro[2.5]octane-4-carbonyl]-furan-2-yl}-benzenesulfonamide]"
< 100,< 100,< 100,< 100,"NS(=O)(=O)c1ccc(NC(=O)C(=O)N2CCN(c3ncnc4[nH]ccc34)CC23CC3)cc1 [Example 401, 2-Oxo-2-[7-(7H-pyrrolo[2,3-d]pyrimidin-4-yl)-4,7-diaza-spiro[2.5]oct-4-yl]-N-(4-sulfamoyl-phenyl)-acetamide]"
< 100,< 100,< 100,< 100,"NS(=O)(=O)c1c[nH]c(C(=O)N2CCN(c3ncnc4[nH]ccc34)CC23CC3)c1 [Example 402, 5-[7-(7H-Pyrrolo[2,3-d]pyrimidin-4-yl)-4,7-diaza-spiro[2.5]octane-4-carbonyl]-1H-pyrrole-3-sulfonic acid amide]"
< 100,100 to 500,100 to 500,< 100,"Cc1cc(C(=O)N2CCN(c3ncnc4[nH]ccc34)CC23CC3)ccc1S(C)(=O)=O [Example 403, (4-Methanesulfonyl-3-methyl-phenyl)-[7-(7H-pyrrolo[2,3-d]pyrimidin-4-yl)-4,7-diaza-spiro[2.5]oct-4-yl]-methanone]"
< 100,< 100,< 100,< 100,"NS(=O)(=O)c1ccc(SCC(=O)N2CCN(c3ncnc4[nH]ccc34)CC23CC3)cc1 [Example 404, 4-{2-Oxo-2-[7-(7H-pyrrolo[2,3-d]pyrimidin-4-yl)-4,7-diaza-spiro[2.5]oct-4-yl]-ethylsulfanyl}-benzenesulfonamide]"
< 100,< 100,< 100,< 100,"NS(=O)(=O)c1ccc(C(=O)N2CCN(c3ncnc4[nH]ccc34)CC23CC3)s1 [Example 405, 5-[7-(7H-Pyrrolo[2,3-d]pyrimidin-4-yl)-4,7-diaza-spiro[2.5]octane-4-carbonyl]-thiophene-2-sulfonic acid amide]"
< 100,100 to 500,100 to 500,< 100,"O=C(c1ccc(S(=O)(=O)CCO)cc1)N1CCN(c2ncnc3[nH]ccc23)CC12CC2 [Example 406, [4-(2-Hydroxy-ethanesulfonyl)-phenyl]-[7-(7H-pyrrolo[2,3-d]pyrimidin-4-yl)-4,7-diaza-spiro[2.5]oct-4-yl]-methanone]"
< 100,> 500,> 500,< 100,"O=C(c1ccc(S(=O)(=O)C2CCCC2)cc1)N1CCN(c2ncnc3[nH]ccc23)CC12CC2 [Example 407, (4-Cyclopentanesulfonyl-phenyl)-[7-(7H-pyrrolo[2,3-d]pyrimidin-4-yl)-4,7-diaza-spiro[2.5]oct-4-yl]-methanone]"
< 100,> 500,> 500,< 100,"N#CCCCS(=O)(=O)c1ccc(C(=O)N2CCN(c3ncnc4[nH]ccc34)CC23CC3)cc1 [Example 408, 4-{4-[7-(7H-Pyrrolo[2,3-d]pyrimidin-4-yl)-4,7-diaza-spiro[2.5]octane-4-carbonyl]-benzenesulfonyl}-butyronitrile]"
< 100,100 to 500,< 100,< 100,"NS(=O)(=O)Cc1ccc(C(=O)N2CCN(c3ncnc4[nH]ccc34)CC23CC3)cc1 [Example 409, {4-[7-(7H-Pyrrolo[2,3-d]pyrimidin-4-yl)-4,7-diaza-spiro[2.5]octane-4-carbonyl]-phenyl}-methanesulfonamide]"
< 100,< 100,< 100,< 100,"NS(=O)(=O)c1ccc(C(=O)NCC(=O)N2CCN(c3ncnc4[nH]ccc34)CC23CC3)cc1 [Example 410, N-{2-Oxo-2-[7-(7H-pyrrolo[2,3-d]pyrimidin-4-yl)-4,7-diaza-spiro[2.5]oct-4-yl]-ethyl}-4-sulfamoyl-benzamide]"
< 100,< 100,< 100,< 100,"Cc1cc(S(N)(=O)=O)ccc1OCC(=O)N1CCN(c2ncnc3[nH]ccc23)CC12CC2 [Example 411, 3-Methyl-4-{2-oxo-2-[7-(7H-pyrrolo[2,3-d]pyrimidin-4-yl)-4,7-diaza-spiro[2.5]oct-4-yl]-ethoxy}-benzenesulfonamide]"
< 100,> 500,< 100,< 100,"NS(=O)(=O)c1cnn(CC(=O)N2CCN(c3ncnc4[nH]ccc34)CC23CC3)c1 [Example 412, 1-{2-Oxo-2-[7-(7H-pyrrolo[2,3-d]pyrimidin-4-yl)-4,7-diaza-spiro[2.5]oct-4-yl]-ethyl}-1H-pyrazole-4-sulfonic acid amide]"
< 100,> 500,100 to 500,100 to 500,"O=C(C1CCc2ccccc21)N1CCN(c2ncnc3[nH]ccc23)CC12CC2 (stereo not shown) [Example 413, Indan-1-yl-[7-(7H-pyrrolo[2,3-d]pyrimidin-4-yl)-4,7-diaza-spiro[2.5]oct-4-yl]-methanone]"
< 100,100 to 500,< 100,< 100,"Cc1cnc(C(=O)N2CCN(c3ncnc4[nH]ccc34)CC23CC3)cn1 [Example 414, (5-Methyl-pyrazin-2-yl)-[7-(7H-pyrrolo[2,3-d]pyrimidin-4-yl)-4,7-diaza-spiro[2.5]oct-4-yl]-methanone]"
